Numbers after ± are expanded uncertainties.
Assays:
[1] = Liquid; for Normal boiling temperature: Distillation; for mass density: 298.15 K, 101.33 kPa, Vibrating tube method
[2] = refractive index (Na D-line) (dimensionless); settings: 298.15 K; 101.33 kPa; Liquid; Standard Abbe refractometry

Normal boiling temperature [1] [°C]	refractive index [2]	mass density [1] [kg/m3]	SMILES
100.00 ± 0.41	1.3325 ± 0.0005	–	O [water]
289.90 ± 0.41	1.4726 ± 0.0005	1258.52 ± 0.19	OCC(O)CO [glycerol]
197.12 ± 0.41	1.4308 ± 0.0005	–	OCCO [1,2-ethanediol]
77.90 ± 0.41	1.3594 ± 0.0005	785.18 ± 0.15	CCO [ethanol]
